Assay results reported in ChEMBL document CHEMBL1201862, “PubChem BioAssay data set” (2004).
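Briefly, cells in 96-well plates were exposed to five compound concentrations for 48 h, and endpoints were estimated by linear interpolation. GI50 marks 50% less growth.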 Calls of active or inactive are those of the source. No stated cut-off is given here; in the data, active = GI50 up to about 1.1 µM and inactive = higher.

Experiments:
Test in all cases: NCI anticancer screen, dose series, 48 h
SK-OV-3 = tested on: SK-OV-3
M14 = tested on: M14
UO-31 = tested on: UO-31
CAKI-1 = tested on: CAKI-1
U-251 = tested on: U-251
SF-539 = tested on: SF-539
NCI-H23 = tested on: NCI-H23
IGROV-1 = tested on: IGROV-1
HCT-116 = tested on: HCT-116
TK-10 = tested on: TK-10
MOLT-4 = tested on: MOLT-4
LOX IMVI = tested on: LOX IMVI
HT-29 = tested on: HT-29
T47D = tested on: T47D
HOP-62 = tested on: HOP-62
HCT-15 = tested on: HCT-15
NCI-H522 = tested on: NCI-H522
OVCAR-8 = tested on: OVCAR-8
RPMI-8226 = tested on: RPMI-8226
HL-60 = tested on: HL-60

With `NS(=O)(=O)c1ccc(NC(=O)Nc2cccc3ccccc23)cc1` the GI50 (SK-OV-3) was 42.8 µM (inactive), the GI50 (M14) was 86.9 µM (inactive) and the GI50 (UO-31) was 16.1 µM (inactive). For the same compound, the GI50 (CAKI-1) was > 100 µM (inactive), the GI50 (U-251) was 18.3 µM (inactive) and the GI50 (SF-539) was 23.8 µM (inactive). For the same compound, the GI50 (NCI-H23) was 34.4 µM (inactive), the GI50 (IGROV-1) was 53.6 µM (inactive) and the GI50 (HCT-116) was 39.8 µM (inactive). The GI50 (TK-10) was 31 µM (inactive), the GI50 (MOLT-4) was > 100 µM (inactive) and the GI50 (LOX IMVI) was 43.1 µM (inactive). For the same compound, the GI50 (HT-29) was 60.3 µM (inactive), the GI50 (T47D) was 33.5 µM (inactive) and the GI50 (HOP-62) was 34.4 µM (inactive). The GI50 (HCT-15) was 91.4 µM, the GI50 (NCI-H522) was 19.4 µM (inactive) and the GI50 (OVCAR-8) was 20.9 µM (inactive). The GI50 (RPMI-8226) was > 100 µM (inactive) and the GI50 (HL-60) was > 100 µM (inactive).

With `O=C1NNC(=O)c2ccccc2SSc2ccccc2C(=O)NNC(=O)c2ccccc2SSc2ccccc21` the GI50 (SK-OV-3) was 23.3 µM (inactive), the GI50 (M14) was 24.4 µM (inactive) and the GI50 (UO-31) was 3.39 µM (inactive). The GI50 (CAKI-1) was 13.2 µM (inactive), the GI50 (U-251) was 17.3 µM (inactive) and the GI50 (SF-539) was 17.3 µM (inactive). The GI50 (NCI-H23) was 9.33 µM (inactive), the GI50 (IGROV-1) was 9.25 µM (inactive) and the GI50 (HCT-116) was 7.76 µM (inactive). The GI50 (TK-10) was 36.9 µM (inactive), the GI50 (MOLT-4) was 2.94 µM (inactive) and the GI50 (LOX IMVI) was 12 µM (inactive). The GI50 (HT-29) was 16.7 µM (inactive), the GI50 (T47D) was 28.8 µM (inactive) and the GI50 (HOP-62) was 21.4 µM (inactive). The GI50 (HCT-15) was 8.99 µM, the GI50 (NCI-H522) was 35.5 µM (inactive) and the GI50 (OVCAR-8) was 12.5 µM (inactive). The GI50 (RPMI-8226) was 34 µM (inactive) and the GI50 (HL-60) was 6.7 µM (inactive).

With `Cn1c(N)c(Cc2ccc(Cl)cc2)c(=O)[nH]c1=O` the GI50 (SK-OV-3) was > 100 µM (inactive), the GI50 (M14) was > 100 µM (inactive) and the GI50 (UO-31) was > 100 µM (inactive). For the same compound, the GI50 (CAKI-1) was > 100 µM (inactive), the GI50 (SF-539) was > 100 µM (inactive) and the GI50 (NCI-H23) was > 100 µM (inactive). The GI50 (IGROV-1) was > 100 µM (inactive), the GI50 (HCT-116) was > 100 µM (inactive) and the GI50 (TK-10) was > 100 µM (inactive). For the same compound, the GI50 (MOLT-4) was > 100 µM (inactive), the GI50 (LOX IMVI) was > 100 µM (inactive) and the GI50 (HT-29) was > 100 µM (inactive). For the same compound, the GI50 (T47D) was > 100 µM (inactive), the GI50 (HOP-62) was > 100 µM (inactive) and the GI50 (HCT-15) was > 100 µM. For the same compound, the GI50 (NCI-H522) was > 100 µM (inactive), the GI50 (OVCAR-8) was > 100 µM (inactive) and the GI50 (RPMI-8226) was > 100 µM (inactive). The GI50 (HL-60) was > 100 µM (inactive).

`COc1cccc2c3cccc(OC)c3c3[nH]cnc3c12` was tested, and the GI50 (SK-OV-3) was 18.7 µM (inactive), the GI50 (M14) was 1.71 µM (inactive) and the GI50 (UO-31) was 1.66 µM (inactive). The GI50 (CAKI-1) was 16.9 µM (inactive), the GI50 (U-251) was 1.67 µM (inactive) and the GI50 (SF-539) was 1.32 µM (inactive). For the same compound, the GI50 (NCI-H23) was 1.84 µM (inactive), the GI50 (IGROV-1) was 1.76 µM (inactive) and the GI50 (HCT-116) was 1.63 µM (inactive). The GI50 (TK-10) was 1.65 µM (inactive), the GI50 (MOLT-4) was 2.29 µM (inactive) and the GI50 (LOX IMVI) was 1.98 µM (inactive). For the same compound, the GI50 (HT-29) was 1.64 µM (inactive), the GI50 (T47D) was 6.24 µM (inactive) and the GI50 (HOP-62) was 16.4 µM (inactive). For the same compound, the GI50 (HCT-15) was 1.76 µM, the GI50 (NCI-H522) was 1.55 µM (inactive) and the GI50 (OVCAR-8) was 1.94 µM (inactive). For the same compound, the GI50 (RPMI-8226) was 2.53 µM (inactive) and the GI50 (HL-60) was 0.785 µM (active).

`CCCCCC1=C/C(=C\c2[nH]c(-c3ccc[nH]3)cc2OC)N=C1C` was tested, and the GI50 (SK-OV-3) was 0.25 µM (active), the GI50 (M14) was < 0.01 µM (active) and the GI50 (UO-31) was 0.011 µM (active). The GI50 (CAKI-1) was < 0.01 µM (active), the GI50 (U-251) was 0.0122 µM (active) and the GI50 (SF-539) was 0.0127 µM (active). The GI50 (NCI-H23) was 0.0128 µM (active), the GI50 (IGROV-1) was 0.017 µM (active) and the GI50 (HCT-116) was < 0.01 µM (active). For the same compound, the GI50 (TK-10) was 0.0329 µM (active), the GI50 (MOLT-4) was < 0.01 µM (active) and the GI50 (LOX IMVI) was < 0.01 µM (active). For the same compound, the GI50 (HT-29) was < 0.01 µM (active), the GI50 (T47D) was 0.0189 µM (active) and the GI50 (HOP-62) was 0.0111 µM (active). For the same compound, the GI50 (HCT-15) was < 0.01 µM, the GI50 (NCI-H522) was < 0.01 µM (active) and the GI50 (OVCAR-8) was < 0.01 µM (active). For the same compound, the GI50 (RPMI-8226) was < 0.01 µM (active) and the GI50 (HL-60) was < 0.01 µM (active).

In the case of `CC1=NN(c2ccccc2)C(=O)C1/N=N/c1ccc(S(N)(=O)=O)cc1` (centres undefined), the GI50 (SK-OV-3) is reported as > 100 µM (inactive), the GI50 (M14) is reported as > 100 µM (inactive) and the GI50 (UO-31) is reported as > 100 µM (inactive). The GI50 (CAKI-1) was > 100 µM (inactive), the GI50 (U-251) was > 100 µM (inactive) and the GI50 (SF-539) was > 100 µM (inactive). The GI50 (NCI-H23) was > 100 µM (inactive), the GI50 (IGROV-1) was > 100 µM (inactive) and the GI50 (HCT-116) was > 100 µM (inactive). For the same compound, the GI50 (TK-10) was > 100 µM (inactive), the GI50 (MOLT-4) was > 100 µM (inactive) and the GI50 (LOX IMVI) was > 100 µM (inactive). The GI50 (HT-29) was > 100 µM (inactive), the GI50 (T47D) was > 100 µM (inactive) and the GI50 (HOP-62) was > 100 µM (inactive). The GI50 (HCT-15) was > 100 µM, the GI50 (NCI-H522) was > 100 µM (inactive) and the GI50 (OVCAR-8) was > 100 µM (inactive). The GI50 (RPMI-8226) was > 100 µM (inactive) and the GI50 (HL-60) was > 100 µM (inactive).

For `C=C1[C@H](OCC(C)C)[C@@H](OC(=O)C(C)CC)[C@@H](O)C(C)(C)/C=C/[C@H](C)C(=O)[C@@]2(O)C[C@H](C)[C@H](O)[C@@H]2[C@H]1OC(=O)C(C)CC` (some centres undefined), the GI50 (SK-OV-3) was 19.7 µM (inactive), the GI50 (M14) was 2.15 µM (inactive) and the GI50 (UO-31) was 0.499 µM (active). For the same compound, the GI50 (CAKI-1) was 3.32 µM (inactive), the GI50 (U-251) was 5.82 µM (inactive) and the GI50 (SF-539) was 3.05 µM (inactive). The GI50 (NCI-H23) was 5.2 µM (inactive), the GI50 (IGROV-1) was 7.98 µM (inactive) and the GI50 (HCT-116) was 4.88 µM (inactive). The GI50 (TK-10) was 4 µM (inactive), the GI50 (MOLT-4) was 2 µM (inactive) and the GI50 (LOX IMVI) was 4.2 µM (inactive). For the same compound, the GI50 (HT-29) was 2.56 µM (inactive), the GI50 (T47D) was > 13.1 µM (inactive) and the GI50 (HOP-62) was 2.17 µM (inactive). For the same compound, the GI50 (HCT-15) was 7.82 µM, the GI50 (NCI-H522) was 8.63 µM (inactive) and the GI50 (OVCAR-8) was 9.98 µM (inactive). For the same compound, the GI50 (RPMI-8226) was 0.516 µM (active) and the GI50 (HL-60) was 1.05 µM (active).
